From article doi:10.1101/2024.08.13.607785v1 (biorxiv, 2024) come the findings set out here.

Common to all, as to assay: biochemical
Holding throughout (set-up): species or system human cell line lysate

In assay [1] the target is Serine/threonine-protein kinase D2 ; PRKD2 ; Q9BZL6 (Homo sapiens, UniProt Q9BZL6).
For assay [2], the target named is Beta-adrenergic receptor kinase 1 ; GRK2 ; P25098 (Homo sapiens, UniProt P25098).
In assay [3] the target is MAP/microtubule affinity-regulating kinase 3 ; MARK3 ; P27448 (Homo sapiens, UniProt P27448).
Chain of MAP/microtubule affinity-regulating kinase 3 ; MARK3 ; P27448 (P27448 whole entry, one chain of several): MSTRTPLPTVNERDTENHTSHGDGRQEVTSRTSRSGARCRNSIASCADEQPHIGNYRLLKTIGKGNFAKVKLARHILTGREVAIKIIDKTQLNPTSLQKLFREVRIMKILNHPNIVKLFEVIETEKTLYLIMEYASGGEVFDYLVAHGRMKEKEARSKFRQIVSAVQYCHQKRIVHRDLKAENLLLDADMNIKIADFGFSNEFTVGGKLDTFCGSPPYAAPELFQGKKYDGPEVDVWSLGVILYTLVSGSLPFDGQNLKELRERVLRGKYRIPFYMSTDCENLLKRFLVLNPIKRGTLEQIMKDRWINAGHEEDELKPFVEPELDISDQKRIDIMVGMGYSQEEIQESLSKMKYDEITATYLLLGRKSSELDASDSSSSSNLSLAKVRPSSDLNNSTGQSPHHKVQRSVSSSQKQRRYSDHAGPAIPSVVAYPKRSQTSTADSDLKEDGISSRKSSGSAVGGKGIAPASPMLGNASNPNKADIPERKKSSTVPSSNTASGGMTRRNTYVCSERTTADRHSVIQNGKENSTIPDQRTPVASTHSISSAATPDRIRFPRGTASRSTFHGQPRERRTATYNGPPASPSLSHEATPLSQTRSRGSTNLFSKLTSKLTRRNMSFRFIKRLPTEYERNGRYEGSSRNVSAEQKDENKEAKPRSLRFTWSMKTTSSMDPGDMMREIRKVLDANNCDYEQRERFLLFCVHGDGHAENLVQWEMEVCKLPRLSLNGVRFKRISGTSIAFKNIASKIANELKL
Assay [4] addresses T1, Ephrin type-B receptor 2 ; EPHB2 ; P29323 (Homo sapiens, UniProt P29323).
T1 sequence (P29323 1-1055): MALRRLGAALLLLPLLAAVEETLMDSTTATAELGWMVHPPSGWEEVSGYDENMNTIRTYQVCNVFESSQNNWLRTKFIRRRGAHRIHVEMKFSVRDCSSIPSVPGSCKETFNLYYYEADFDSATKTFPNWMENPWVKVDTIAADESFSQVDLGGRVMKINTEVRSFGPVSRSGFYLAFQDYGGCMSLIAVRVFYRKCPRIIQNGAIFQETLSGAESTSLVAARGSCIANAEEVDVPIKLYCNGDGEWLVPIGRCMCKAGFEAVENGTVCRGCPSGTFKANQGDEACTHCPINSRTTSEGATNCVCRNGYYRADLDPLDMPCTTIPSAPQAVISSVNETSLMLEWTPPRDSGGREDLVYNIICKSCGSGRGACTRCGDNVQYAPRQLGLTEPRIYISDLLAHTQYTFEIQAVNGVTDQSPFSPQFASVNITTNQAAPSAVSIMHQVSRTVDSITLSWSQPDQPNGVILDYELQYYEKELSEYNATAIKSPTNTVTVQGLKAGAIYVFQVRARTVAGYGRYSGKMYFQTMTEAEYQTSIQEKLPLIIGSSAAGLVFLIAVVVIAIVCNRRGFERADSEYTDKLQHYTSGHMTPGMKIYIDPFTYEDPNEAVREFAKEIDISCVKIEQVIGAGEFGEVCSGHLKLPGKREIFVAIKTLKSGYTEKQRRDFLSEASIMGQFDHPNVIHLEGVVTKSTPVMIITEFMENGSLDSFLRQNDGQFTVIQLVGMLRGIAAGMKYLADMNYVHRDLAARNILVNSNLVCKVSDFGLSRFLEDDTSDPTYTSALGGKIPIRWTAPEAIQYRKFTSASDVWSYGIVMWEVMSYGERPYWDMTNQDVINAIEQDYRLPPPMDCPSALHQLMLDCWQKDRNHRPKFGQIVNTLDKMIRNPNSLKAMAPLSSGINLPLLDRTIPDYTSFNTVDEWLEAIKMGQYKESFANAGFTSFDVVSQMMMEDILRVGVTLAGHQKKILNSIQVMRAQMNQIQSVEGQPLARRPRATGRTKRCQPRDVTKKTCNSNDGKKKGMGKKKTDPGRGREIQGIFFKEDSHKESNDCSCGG

For assay [5], the target named is Serine-protein kinase ATM ; ATM ; Q13315 (Homo sapiens, UniProt Q13315).
Chain of Serine-protein kinase ATM ; ATM ; Q13315 (Q13315 whole entry): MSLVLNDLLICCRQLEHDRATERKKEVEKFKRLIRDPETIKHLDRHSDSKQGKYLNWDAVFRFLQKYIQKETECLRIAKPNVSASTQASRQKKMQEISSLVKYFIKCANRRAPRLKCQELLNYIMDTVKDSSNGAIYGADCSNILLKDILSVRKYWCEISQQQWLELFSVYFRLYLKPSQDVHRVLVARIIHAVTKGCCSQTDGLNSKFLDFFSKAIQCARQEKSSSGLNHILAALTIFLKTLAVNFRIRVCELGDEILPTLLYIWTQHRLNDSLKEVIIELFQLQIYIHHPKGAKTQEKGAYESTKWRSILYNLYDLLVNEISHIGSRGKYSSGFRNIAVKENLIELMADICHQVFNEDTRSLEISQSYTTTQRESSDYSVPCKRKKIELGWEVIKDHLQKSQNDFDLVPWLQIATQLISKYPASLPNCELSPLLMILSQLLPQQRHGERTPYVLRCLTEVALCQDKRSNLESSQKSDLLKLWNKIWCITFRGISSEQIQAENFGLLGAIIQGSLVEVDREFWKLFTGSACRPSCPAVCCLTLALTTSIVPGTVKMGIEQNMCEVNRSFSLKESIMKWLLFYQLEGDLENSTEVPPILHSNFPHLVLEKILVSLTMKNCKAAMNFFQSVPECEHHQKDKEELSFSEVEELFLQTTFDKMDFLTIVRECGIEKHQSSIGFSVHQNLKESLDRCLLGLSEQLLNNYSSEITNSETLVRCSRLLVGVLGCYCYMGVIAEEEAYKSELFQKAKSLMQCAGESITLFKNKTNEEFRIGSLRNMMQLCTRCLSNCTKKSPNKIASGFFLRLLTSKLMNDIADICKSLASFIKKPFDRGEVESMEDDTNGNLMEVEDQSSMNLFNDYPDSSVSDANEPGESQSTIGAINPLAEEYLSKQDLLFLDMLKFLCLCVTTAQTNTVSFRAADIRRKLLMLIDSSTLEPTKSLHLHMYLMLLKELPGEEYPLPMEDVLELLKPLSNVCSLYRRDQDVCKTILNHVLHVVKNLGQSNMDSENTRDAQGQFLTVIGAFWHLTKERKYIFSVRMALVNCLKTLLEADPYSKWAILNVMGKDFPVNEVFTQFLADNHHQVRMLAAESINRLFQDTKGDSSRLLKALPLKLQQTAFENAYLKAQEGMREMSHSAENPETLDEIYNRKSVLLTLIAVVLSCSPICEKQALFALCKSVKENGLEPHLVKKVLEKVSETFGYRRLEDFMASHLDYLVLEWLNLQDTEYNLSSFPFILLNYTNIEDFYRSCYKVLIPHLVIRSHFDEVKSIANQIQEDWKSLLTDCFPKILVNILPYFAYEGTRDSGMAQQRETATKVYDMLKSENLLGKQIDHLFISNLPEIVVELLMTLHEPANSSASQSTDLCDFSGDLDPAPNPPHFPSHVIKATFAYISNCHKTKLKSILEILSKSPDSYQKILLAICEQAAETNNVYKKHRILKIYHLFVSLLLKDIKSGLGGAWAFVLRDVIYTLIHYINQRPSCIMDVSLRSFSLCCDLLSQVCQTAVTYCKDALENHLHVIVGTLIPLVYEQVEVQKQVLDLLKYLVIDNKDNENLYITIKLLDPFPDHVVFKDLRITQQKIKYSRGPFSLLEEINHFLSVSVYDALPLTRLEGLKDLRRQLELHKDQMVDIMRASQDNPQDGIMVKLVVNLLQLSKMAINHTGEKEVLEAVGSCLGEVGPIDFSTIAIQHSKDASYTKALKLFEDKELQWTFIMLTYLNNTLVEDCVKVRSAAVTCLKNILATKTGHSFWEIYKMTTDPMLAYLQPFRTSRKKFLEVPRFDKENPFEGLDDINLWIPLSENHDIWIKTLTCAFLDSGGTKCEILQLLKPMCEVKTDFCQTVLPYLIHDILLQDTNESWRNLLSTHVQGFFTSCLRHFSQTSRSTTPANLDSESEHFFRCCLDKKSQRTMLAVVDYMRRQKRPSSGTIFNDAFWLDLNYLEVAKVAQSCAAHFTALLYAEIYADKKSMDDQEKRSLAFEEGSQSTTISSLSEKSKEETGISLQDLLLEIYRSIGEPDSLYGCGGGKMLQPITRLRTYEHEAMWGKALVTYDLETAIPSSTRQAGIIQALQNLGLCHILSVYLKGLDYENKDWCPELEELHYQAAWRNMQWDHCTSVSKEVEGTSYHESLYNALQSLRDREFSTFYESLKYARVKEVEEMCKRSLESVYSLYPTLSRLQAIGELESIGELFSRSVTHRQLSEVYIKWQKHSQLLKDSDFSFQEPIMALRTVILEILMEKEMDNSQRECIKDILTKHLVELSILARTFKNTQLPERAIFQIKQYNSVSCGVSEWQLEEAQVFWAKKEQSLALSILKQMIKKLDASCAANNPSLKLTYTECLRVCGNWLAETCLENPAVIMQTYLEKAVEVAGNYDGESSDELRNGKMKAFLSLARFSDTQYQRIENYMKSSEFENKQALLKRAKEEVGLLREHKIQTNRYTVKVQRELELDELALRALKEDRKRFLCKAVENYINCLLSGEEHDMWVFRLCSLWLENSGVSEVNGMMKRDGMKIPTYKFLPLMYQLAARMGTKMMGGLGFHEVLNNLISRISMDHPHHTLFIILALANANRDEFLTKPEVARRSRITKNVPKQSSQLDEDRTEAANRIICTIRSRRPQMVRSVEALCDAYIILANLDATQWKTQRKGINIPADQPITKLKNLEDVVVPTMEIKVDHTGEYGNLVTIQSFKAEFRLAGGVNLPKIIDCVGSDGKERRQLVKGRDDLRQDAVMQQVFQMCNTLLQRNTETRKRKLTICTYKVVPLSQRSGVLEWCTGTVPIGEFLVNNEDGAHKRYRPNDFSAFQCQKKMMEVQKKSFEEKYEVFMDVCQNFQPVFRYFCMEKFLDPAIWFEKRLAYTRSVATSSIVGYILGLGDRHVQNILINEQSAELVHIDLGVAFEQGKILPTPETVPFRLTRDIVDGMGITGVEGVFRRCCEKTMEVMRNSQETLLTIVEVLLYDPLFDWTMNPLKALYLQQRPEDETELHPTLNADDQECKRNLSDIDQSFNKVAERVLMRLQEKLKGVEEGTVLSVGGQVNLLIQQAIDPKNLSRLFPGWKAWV
In assay [6] the target is Activin receptor type-1 ; ACVR1 ; Q04771 (Homo sapiens, UniProt Q04771).
Chain of Activin receptor type-1 ; ACVR1 ; Q04771 (Q04771 whole entry): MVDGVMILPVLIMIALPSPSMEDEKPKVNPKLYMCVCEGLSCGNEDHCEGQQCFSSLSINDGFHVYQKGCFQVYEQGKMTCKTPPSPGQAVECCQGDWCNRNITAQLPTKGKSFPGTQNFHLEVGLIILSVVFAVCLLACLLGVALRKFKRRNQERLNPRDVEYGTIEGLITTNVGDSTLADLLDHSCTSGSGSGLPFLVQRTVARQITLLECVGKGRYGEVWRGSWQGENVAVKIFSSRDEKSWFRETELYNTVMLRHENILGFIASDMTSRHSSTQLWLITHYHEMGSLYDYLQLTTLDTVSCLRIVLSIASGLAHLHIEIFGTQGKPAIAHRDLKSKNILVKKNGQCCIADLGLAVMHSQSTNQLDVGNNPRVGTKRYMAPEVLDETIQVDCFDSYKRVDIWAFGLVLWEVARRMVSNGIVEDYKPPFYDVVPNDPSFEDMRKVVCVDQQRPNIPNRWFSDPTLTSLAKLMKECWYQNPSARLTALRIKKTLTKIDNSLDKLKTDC
Assay [7] deals with T2, Serine/threonine-protein kinase NLK ; NLK ; Q9UBE8 (Homo sapiens, UniProt Q9UBE8).
T2 sequence (Q9UBE8 1-527): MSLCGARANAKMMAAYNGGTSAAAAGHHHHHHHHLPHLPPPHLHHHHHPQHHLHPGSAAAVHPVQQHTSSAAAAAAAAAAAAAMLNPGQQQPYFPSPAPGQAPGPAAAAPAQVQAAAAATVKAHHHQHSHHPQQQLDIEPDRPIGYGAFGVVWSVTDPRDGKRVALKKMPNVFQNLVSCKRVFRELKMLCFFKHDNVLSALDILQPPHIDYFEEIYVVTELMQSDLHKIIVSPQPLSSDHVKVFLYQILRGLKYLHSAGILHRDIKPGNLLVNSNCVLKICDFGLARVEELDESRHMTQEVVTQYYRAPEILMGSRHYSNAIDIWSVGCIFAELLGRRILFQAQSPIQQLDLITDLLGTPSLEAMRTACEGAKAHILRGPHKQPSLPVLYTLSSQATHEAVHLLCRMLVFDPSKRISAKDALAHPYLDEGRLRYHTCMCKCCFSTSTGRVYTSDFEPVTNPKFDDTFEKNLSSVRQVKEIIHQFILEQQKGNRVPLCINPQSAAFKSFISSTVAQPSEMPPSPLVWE

The target of assay [8] is Serine/threonine-protein kinase PLK4 ; PLK4 ; O00444 (Homo sapiens, UniProt O00444).
In assay [9] the target is Serine/threonine-protein kinase TAO2 ; TAOK2 ; Q9UL54 (Homo sapiens, UniProt Q9UL54).
Assay [10] addresses Isoform 3 of Serine/threonine-protein kinase MARK1 ; MARK1 ; Q9P0L2-3 (Homo sapiens, UniProt Q9P0L2).
The mark [11] stands for this setting: read-out: BAY-1143572 (10 µM) / %Intensity relative to DMSO.
[12] abbreviates: read-out: BAY-1251152 (10 µM) / %Intensity relative to DMSO.

Read-outs that look alike come from different tables or passages of the source.

Chain of Isoform 3 of Serine/threonine-protein kinase MARK1 ; MARK1 ; Q9P0L2-3 (Q9P0L2 whole entry, canonical isoform, one chain of several): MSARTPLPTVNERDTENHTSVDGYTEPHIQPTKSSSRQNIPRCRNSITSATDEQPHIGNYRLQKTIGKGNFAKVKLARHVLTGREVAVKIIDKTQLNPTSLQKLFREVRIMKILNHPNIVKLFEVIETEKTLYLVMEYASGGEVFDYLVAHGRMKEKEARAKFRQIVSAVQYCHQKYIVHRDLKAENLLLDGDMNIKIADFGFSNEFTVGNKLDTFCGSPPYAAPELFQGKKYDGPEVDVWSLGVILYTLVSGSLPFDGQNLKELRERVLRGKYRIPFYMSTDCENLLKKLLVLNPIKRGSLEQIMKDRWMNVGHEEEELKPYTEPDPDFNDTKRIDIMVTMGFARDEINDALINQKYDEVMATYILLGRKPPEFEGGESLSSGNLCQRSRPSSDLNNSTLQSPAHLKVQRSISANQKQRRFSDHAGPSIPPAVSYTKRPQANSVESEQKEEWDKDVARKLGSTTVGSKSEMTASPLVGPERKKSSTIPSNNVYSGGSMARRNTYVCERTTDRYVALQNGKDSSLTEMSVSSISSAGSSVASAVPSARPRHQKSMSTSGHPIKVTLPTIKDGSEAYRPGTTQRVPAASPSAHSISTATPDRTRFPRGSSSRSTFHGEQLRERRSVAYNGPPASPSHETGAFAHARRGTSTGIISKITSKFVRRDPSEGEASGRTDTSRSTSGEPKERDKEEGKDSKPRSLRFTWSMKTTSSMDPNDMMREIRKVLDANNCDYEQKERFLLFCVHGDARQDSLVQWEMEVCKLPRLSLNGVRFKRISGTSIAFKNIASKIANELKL

Regarding `COc1cc(F)ccc1-c1ncnc(Nc2cccc(C[S@](C)(=N)=O)c2)n1` [BAY-1143572], the remaining activity at 10 µM is 99.6% in [1] (setting [11]); 142% in assay [2] (setting [11]); 106% in assay [3] (setting [11]); 84.3% in [4] (setting [11]); 110% in assay [5] (setting [11]); 87.7% in assay [6] (setting [11]). For the same compound, the remaining activity at 10 µM in [7] (setting [11]) was found to be 103%; in [8] (setting [11]) it was 104%; in assay [9] (setting [11]), 80.7%; in assay [10] (setting [11]), 80.9%.

With `COc1cc(F)ccc1-c1cc(Nc2cc(CS(C)(=N)=O)ccn2)ncc1F` (centres unmarked) [BAY-1251152], the remaining activity at 10 µM in [1] (setting [12]) was 96.3%; in assay [2] (setting [12]), 131%; in assay [3] (setting [12]), 100%; in assay [4] (setting [12]) it was 105%; in assay [5] (setting [12]) it was 115%; in assay [6] (setting [12]), 99.3%. Moreover, the remaining activity at 10 µM in assay [7] (setting [12]) worked out at 115%; in assay [8] (setting [12]), 109%; in assay [9] (setting [12]) it was 56%; in [10] (setting [12]), 84.7%.
